Common to all, as to test: growth of human tumour cells (NCI), 48 h
The test system of test [1] is 786-0 renal.
The test system of test [2] is A498 renal.
Test [3] relates to A549 NSCLC.
The subject of test [4] is COLO 205 colon.
Test [5] relates to HL-60(TB) leukemia.
In test [6] the test system is HOP-62 NSCLC.
The test system of test [7] is HS 578T breast.
Test [8] relates to M14 melanoma.
Test [9] relates to NCI-H23 lung.
The subject of test [10] is NCI-H460 lung.
Test [11] concerns NCI/ADR-RES ovarian.
Test [12] deals with OVCAR-8 ovarian.
For test [13], the system named is SK-MEL-28 melanoma.
The test system of test [14] is SNB-75 CNS.
In test [15] the test system is U251 CNS.

Consider 10 compounds from PubChem BioAssay (NCI).

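How tested: cells in 96-well plates exposed to compound for 48 hours at five concentrations. TGI marks complete inhibition of growth.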

`O=C1C=CC(=O)c2c(O)c(Nc3ccc(OC(F)(F)F)cc3)c(Cl)c(O)c21`: the TGI in [1] came out at 1.26 µM; in test [2], 9.36 µM; in test [3], 11.7 µM; in [4] it was 2.84 µM; in test [5], 3.24 µM; in test [6] it was 2.57 µM. For the same compound, the TGI in test [7] amounted to 10.8 µM; in test [8], 1.22 µM; in test [9], 0.708 µM; in test [10], 3.6 µM; in test [11] it was 4.57 µM; in test [12], 8.25 µM. The values for the TGI in [13], in test [14] and in test [15] were 1.97 µM, 1.79 µM and 2.05 µM, respectively.

As for `C[C@H](C(=O)N1C(=O)O[C@@H](c2ccccc2)[C@H]1C)[C@H](c1ccccc1)N(Cc1ccccc1)OC(=O)c1ccccc1`, the TGI in test [1] was greater than 100 µM; in test [2], greater than 100 µM; in test [3], greater than 100 µM; in test [4], greater than 100 µM; in test [5], greater than 100 µM; in test [6] it was 52.1 µM. In addition, the TGI in [7], in test [8], in test [9], in [10], in test [11] and in test [12] was greater than 100 µM each time. Besides, the TGI in test [13], in test [14] and in test [15] was greater than 100 µM in each case.

For the compound `CN(C)c1ncc(-c2c[nH]c3ccccc23)nc1-c1c[nH]c2ccccc12`, the TGI in [1] was 4.07 µM; in test [2], 4.56 µM; in test [3], 19.4 µM; in test [4] it was 5.2 µM; in [5], greater than 100 µM; in test [6], 22 µM. Further, the TGI in [7] worked out at 9.5 µM; in [8], 3.99 µM; in [10], 4.99 µM; in test [11], 88.3 µM; in test [12], 23 µM; in [13], 5.73 µM. The TGI in test [14] was found to be 5.59 µM; in test [15], 11.4 µM.

As to `COC(=O)C1=C(C(=O)OC)C2(/N=C(\Nc3ccccc3)c3ccccc3)N(c3ccc(OC)cc3)CC(c3ccccc3)N2O1` (stereo unspecified), the TGI in test [1], in test [2], in test [3], in [4], in test [5] and in [6] was greater than 100 µM each time. For the same compound, the TGI in test [7], in test [8], in test [9], in test [10], in test [11] and in test [12] was greater than 100 µM each time. The TGI is greater than 100 µM in [13], 96.7 µM in test [14] and greater than 100 µM in test [15].

For the compound `Cc1ccc2c(c1)C(=O)C1(C2)Cc2ccc(C)cc2C1=O`, the TGI in test [1], in test [2], in test [3], in test [5], in test [6] and in test [7] was greater than 100 µM each time. Also, the TGI in [8], in test [9], in test [10], in [11], in test [12] and in test [14] was greater than 100 µM throughout. The TGI in [15] is greater than 100 µM.

On to `COC(=O)c1c(C)cccc1C1CN=NC12Cc1c(C)cccc1C2=O` (stereo unspecified), for which the TGI in test [1], in test [2], in test [3], in test [4], in [5] and in [6] was greater than 100 µM in each case. In addition, the TGI in test [7], in [8], in [9], in test [10], in test [11] and in test [12] was greater than 100 µM each time. Moreover, the TGI in [13], in test [14] and in [15] was greater than 100 µM each time.

In the case of `O=C(C1=CCC2(CC1)OCCO2)N(Cc1ccccc1)c1ccccc1I`, the TGI in [1] was 43 µM; in test [2], 51.9 µM; in test [3], greater than 100 µM; in test [4] it was 36.5 µM; in test [5] it was greater than 100 µM; in [6] it was 43.3 µM. The TGI in [7] stood at 22.7 µM; in test [8], 33.5 µM; in [9], 44.1 µM; in test [10], 46.4 µM; in [11], 32.8 µM; in [12] it was 30.1 µM. For the same compound, the TGI in [13] is 46.2 µM; in [14], 37 µM; in test [15], 48.1 µM.

For the compound `COc1ccc(C(F)(F)F)cc1NC(=O)O/N=C(/Cl)C(C)C`, the TGI is 31.8 µM in test [1]; 66.2 µM in test [2]; 40 µM in test [3]; 4.1 µM in [4]; greater than 21.8 µM in test [5]; 46 µM in test [6]. The TGI in test [7] is greater than 78.3 µM; in [8], 36 µM; in test [9], 40.2 µM; in test [10], greater than 64.2 µM; in test [11], 56.5 µM; in [12] it was 41.1 µM. The TGI is 48.5 µM in test [13], 44.4 µM in [14] and greater than 58.2 µM in [15].

For the compound `COC(=O)c1ccccc1C1CN=NC12Cc1c(C)c3c(c(C)c1C2=O)CCC3` (stereo unspecified), the TGI in test [1], in test [2], in test [3], in test [4], in [5] and in test [6] was greater than 100 µM throughout. For the same compound, the TGI in [7], in [8], in test [9], in test [10], in test [11] and in test [12] was greater than 100 µM each time. Besides, the TGI in test [13], in test [14] and in test [15] was greater than 100 µM throughout.

For the compound `COc1cccc(NC(=O)c2c(SC)n[nH]c2N)c1`, the TGI in test [1], in test [2], in test [3], in test [4], in test [5] and in test [6] was greater than 100 µM throughout. Moreover, the TGI in test [7], in test [8], in test [10], in test [11], in [12] and in test [13] was greater than 100 µM in each case. Besides, the TGI in test [14] and in [15] was greater than 100 µM each time.
